Literature values in patent publication US8680301B2, “Lipase activity inhibitors containing high-molecular weight polyphenol fractions, tea extracts, and processes for producing the same” (Suntory Holdings Limited, priority 2004, dated 2014).

Settings: clinical reports

SMILES | Reported side effects
OC1(c2ccc(Cl)cc2)c2ccccc2C2=NCCN21 (centres unmarked) [Mazindole®] | side effects such as excessive thirst (mouth dryness), constipation, epigastric distress, nausea and vomiting
CCCCCCCCCCC[C@@H](C[C@@H]1OC(=O)[C@H]1CCCCCC)OC(=O)[C@H](CC(C)C)NC=O [Xenical®] | side effects such as fatty stool, increased stool frequency, soft stool, diarrhea and stomachache
